Type in all cases: cell-based
Test [1] addresses 5-HT2A (Homo sapiens, UniProt P28223). The experiment in a line: GPCR Calcium Flux assay (FLIPR tetra, Eurofins), 5-HT2A. The conditions noted are these: for IC50: 8 concentrations 10 to 0.0006 uM, read-out: 50% inhibitory concentration (IC50) 5-HT2A; for inhibition at 10 µM: read-out: inhibition rate (%) 5-HT2A. How it is done: (§1) In order to confirm whether the compounds prepared in the above Examples act as an agonist or antagonist against GPCR Target, Calcium Flux assay was performed in an assay plate in which the compounds prepared in the Examples, vehicle controls, and reference compounds were added, using a Fluorometric imaging plate reader (FLIPR tetra) equipment.
(§2) Calcium Flux assay was evaluated by entrusting the GPCR profiler assay in Safety panel assays with Eurofins. By using the Fluo-8AM calcium dye, excitation was measured at a wavelength in the range of 470 to 495 nm and Emission was measured at a wavelength in the range of 515-575 nm. GPCR Assay Buffer for Calcium Flux assay was prepared by adding 20 mM of HEPES and 2.5 mM of Probenecid to Hanks Balanced Salt Solution (HBSS) to have pH 7.4. The Compounds of Examples for evaluation of the GPCR were diluted with DMSO at a concentration of 10 mM to make a stock and then prepared by diluting in the GPCR Assay Buffer at the concentration equivalent to three times the final concentration. First, for the evaluation of GPCRs, the inhibitory activity of the compounds of the Examples was evaluated at a single concentration of 10 uM, and then the respective selected targets were four fold-diluted from 10 uM to the low side to calculate 50% inhibitory concentration (IC50), prepared at the total 8 concentrations of 10, 2.5, 0.62, 0.15, 0.04, 0.01, 0.0024, 0.0006 uM, and Calcium Flux assay for GPCR was conducted. In order to evaluate the agonist and antagonist, % inhibition rate against GPCR activity before and after treatment of the compounds and the inhibitory activity of the compounds of the Examples were determined.
(§3) As a result, when the efficacy of […] and acetylcholine of the compounds prepared in the Examples was 100%, the inhibition rate (%) at a single concentration of 10 uM was evaluated and shown in Table 8.

In test [2] the target is T1, M1 (Homo sapiens, UniProt P11229).
T1 sequence (P11229 1-460): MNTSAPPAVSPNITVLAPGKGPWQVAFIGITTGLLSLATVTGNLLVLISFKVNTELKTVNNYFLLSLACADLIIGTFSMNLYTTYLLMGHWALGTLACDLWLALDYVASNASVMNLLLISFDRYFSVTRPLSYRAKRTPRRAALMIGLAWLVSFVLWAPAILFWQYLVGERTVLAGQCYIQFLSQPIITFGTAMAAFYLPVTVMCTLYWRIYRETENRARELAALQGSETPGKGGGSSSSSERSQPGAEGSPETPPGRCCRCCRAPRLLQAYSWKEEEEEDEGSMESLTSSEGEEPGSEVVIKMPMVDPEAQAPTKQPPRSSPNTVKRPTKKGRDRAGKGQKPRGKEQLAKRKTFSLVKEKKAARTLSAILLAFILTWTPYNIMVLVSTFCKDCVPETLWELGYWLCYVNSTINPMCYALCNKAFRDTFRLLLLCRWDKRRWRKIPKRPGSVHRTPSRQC
The experiment in a line: GPCR Calcium Flux assay (FLIPR tetra, Eurofins), M1. The conditions noted are these: for IC50: 8 concentrations 10 to 0.0006 uM, read-out: 50% inhibitory concentration (IC50) M1; for inhibition at 10 µM: read-out: inhibition rate (%) M1. As for the experimental part:
as §1, §2, §3
A general note: Calcium assays in cells follow changes in intracellular calcium, usually with a dye or a luminescent sensor.

The target of test [3] is T2, M2 (Homo sapiens, UniProt P08172).
T2 sequence (P08172 1-466): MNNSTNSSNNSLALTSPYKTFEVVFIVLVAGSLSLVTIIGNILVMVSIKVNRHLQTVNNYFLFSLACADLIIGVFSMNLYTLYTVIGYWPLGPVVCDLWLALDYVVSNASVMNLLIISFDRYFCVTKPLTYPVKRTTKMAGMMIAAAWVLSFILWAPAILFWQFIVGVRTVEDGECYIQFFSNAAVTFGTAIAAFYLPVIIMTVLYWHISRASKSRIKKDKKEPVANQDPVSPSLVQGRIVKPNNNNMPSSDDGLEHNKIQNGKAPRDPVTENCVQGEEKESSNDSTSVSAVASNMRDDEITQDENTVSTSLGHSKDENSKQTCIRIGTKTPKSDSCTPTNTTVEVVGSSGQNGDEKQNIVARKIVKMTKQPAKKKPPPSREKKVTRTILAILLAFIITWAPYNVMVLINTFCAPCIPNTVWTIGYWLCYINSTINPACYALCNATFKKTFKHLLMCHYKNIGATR
The experiment in a line: GPCR Calcium Flux assay (FLIPR tetra, Eurofins), M2. The conditions noted are these: for inhibition at 10 µM: read-out: inhibition rate (%) M2. As for the experimental part:
as §1, §2, §3

The record followed here is patent publication US10100010B1, “4-methoxy pyrrole derivatives or salts thereof and pharmaceutical composition comprising the same” (Daewoong Pharmaceutical Co., Ltd., priority 2015, dated 2018).

Counter-ions that a name gives are not always drawn. Like-named read-outs stand apart in the source and are kept apart here.

As usually defined, the inhibition is the change of the read-out against control, counted positive when it falls.

Chain of 5-HT2A (P28223 whole entry): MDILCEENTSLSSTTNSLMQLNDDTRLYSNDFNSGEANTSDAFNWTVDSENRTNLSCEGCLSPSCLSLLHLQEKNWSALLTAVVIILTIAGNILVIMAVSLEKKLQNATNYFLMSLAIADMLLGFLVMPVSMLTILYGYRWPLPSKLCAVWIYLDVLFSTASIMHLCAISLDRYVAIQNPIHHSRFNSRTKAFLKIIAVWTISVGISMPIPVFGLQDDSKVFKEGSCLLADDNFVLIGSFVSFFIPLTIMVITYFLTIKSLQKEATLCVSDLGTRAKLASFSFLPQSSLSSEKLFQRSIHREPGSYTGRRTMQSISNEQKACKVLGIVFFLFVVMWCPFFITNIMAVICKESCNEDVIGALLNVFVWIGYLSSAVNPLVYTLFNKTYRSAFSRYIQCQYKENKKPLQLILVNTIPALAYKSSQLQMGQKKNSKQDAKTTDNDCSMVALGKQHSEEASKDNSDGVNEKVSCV

For `CNCc1cn(S(=O)(=O)c2cccc(Cl)c2)c(-c2ccccc2F)c1OC` [Example 1, 1-(5-(2-fluorophenyl)-4-methoxy-1-((3-chlorophenyl)sulfonyl)-1H-pyrrol-3-yl)-N-methylmethanamine hydrochloride], the values for the IC50 in test [1] and in test [2] were 0.25 µM and 1.7 µM, respectively. Further, the inhibition at 10 µM was determined as 96.4% in test [1] (single concentration of 10 uM), 99.6% in test [2] (single concentration of 10 uM) and 66.5% in test [3] (single concentration of 10 uM).
With `CNCc1cn(S(=O)(=O)c2cccc(OC)c2)c(-c2ccccc2F)c1OC` [Example 3, 1-(5-(2-fluorophenyl)-4-methoxy-1-((3-methoxyphenyl)sulfonyl)-1H-pyrrol-3-yl)-N-methylmethanamine hydrochloride], the IC50 in test [1] turned out to be 0.18 µM. The inhibition at 10 µM in test [1] (single concentration of 10 uM) was 94%; in test [2] (single concentration of 10 uM), 87%; in test [3] (single concentration of 10 uM) it was 76.9%.
Turning to `CNCc1cn(S(=O)(=O)c2cccc(OC(F)F)c2)c(-c2ccccc2F)c1OC` [Example 4, 1-(5-(2-fluorophenyl)-4-methoxy-1-((3-difluoromethoxyphenyl)sulfonyl)-1H-pyrrol-3-yl)-N-methylmethanamine hydrochloride], the IC50 in test [1] amounted to 0.85 µM. In addition, the results for the inhibition at 10 µM in test [1] (single concentration of 10 uM), in test [2] (single concentration of 10 uM) and in test [3] (single concentration of 10 uM) were 96%, 55.8% and 22%, respectively.
In the case of `CNCc1cn(S(=O)(=O)c2cccc(OC)c2)c(-c2ccccc2Cl)c1OC` [Example 5, 1-(5-(2-chlorophenyl)-4-methoxy-1-((3-methoxyphenyl)sulfonyl)-1H-pyrrol-3-yl)-N-methylmethanamine hydrochloride], the inhibition at 10 µM was determined as 69.1% in test [1] (single concentration of 10 uM), 93.7% in test [2] (single concentration of 10 uM) and 75.1% in test [3] (single concentration of 10 uM).
For the compound `CNCc1cn(S(=O)(=O)c2cccc(Cl)c2)c(-c2ccc(Cl)cc2F)c1OC` [Example 6, 1-(5-(2-fluoro-4-chlorophenyl)-4-methoxy-1-((3-chlorophenyl)sulfonyl)-1H-pyrrol-3-yl)-N-methylmethanamine hydrochloride], the IC50 was 0.16 µM in test [1] and approximately 3 µM in test [2]. Also, the figures for the inhibition at 10 µM in test [1] (single concentration of 10 uM), in test [2] (single concentration of 10 uM) and in test [3] (single concentration of 10 uM) were 102%, 93.1% and 15.1%, respectively.
As to `CNCc1cn(S(=O)(=O)c2cccc(C(F)(F)F)c2)c(-c2ccc(Cl)cc2F)c1OC` [Example 7, 1-(5-(2-fluoro-4-chlorophenyl)-4-methoxy-1-((3-(trifluoromethyl)phenyl)sulfonyl)-1H-pyrrol-3-yl)-N-methylmethanamine hydrochloride], the inhibition at 10 µM in test [1] (single concentration of 10 uM) was found to be 42.3%; in test [2] (single concentration of 10 uM) it was 65.6%; in test [3] (single concentration of 10 uM), 0.8%.
The corresponding values for `CNCc1cn(S(=O)(=O)c2cccc(C(F)(F)F)c2)c(-c2ccc(F)cc2F)c1OC` [Example 9, 1-(5-(2,4-difluorophenyl)-1-((3-(trifluoromethyl)phenyl)sulfonyl)-4-methoxy-1H-pyrrol-3-yl)-N-methylmethanamine hydrochloride] are 61.1%, 74.7% and 18.3%.
As for `CNCc1cn(S(=O)(=O)c2cccc(C)c2)c(-c2ccc(F)cc2F)c1OC` [Example 10, 1-(5-(2,4-difluorophenyl)-1-((3-methylphenyl)sulfonyl)-4-methoxy-1H-pyrrol-3-yl)-N-methylmethanamine hydrochloride], the IC50 in test [1] amounted to 0.36 µM; in test [2] it was 1.3 µM. The results for the inhibition at 10 µM in test [1] (single concentration of 10 uM), in test [2] (single concentration of 10 uM) and in test [3] (single concentration of 10 uM) were 101%, 96.2% and 77.6%, respectively.
The corresponding values for `CNCc1cn(S(=O)(=O)c2cccc(OC)c2)c(-c2ccc(F)cc2F)c1OC` [Example 11, 1-(5-(2,4-difluorophenyl)-1-((3-methoxyphenyl)sulfonyl)-4-methoxy-1H-pyrrol-3-yl)-N-methylmethanamine hydrochloride] are 0.2 µM, 1.8 µM, 102%, 97.2% and 79.4%.
Take `CNCc1cn(S(=O)(=O)c2cccc(OC(F)F)c2)c(-c2ccc(F)cc2F)c1OC` [Example 12, 1-(5-(2,4-difluorophenyl)-1-((3-difluoromethoxyphenyl)sulfonyl)-4-methoxy-1H-pyrrol-3-yl)-N-methylmethanamine hydrochloride]: the results for the inhibition at 10 µM in test [1] (single concentration of 10 uM), in test [2] (single concentration of 10 uM) and in test [3] (single concentration of 10 uM) were 101%, 93.1% and 28.7%, respectively.
In the case of `CNCc1cn(S(=O)(=O)c2cccc(F)c2)c(-c2c(F)cccc2F)c1OC` [Example 13, 1-(5-(2,6-difluorophenyl)-1-((3-fluorophenyl)sulfonyl)-4-methoxy-1H-pyrrol-3-yl)-N-methylmethanamine hydrochloride], the IC50 in test [1] was 0.076 µM; in test [2] it was 0.11 µM; in test [3] (8 concentrations 10 to 0.0006 uM, read-out: 50% inhibitory concentration (IC50) M2) it was 0.51 µM. In addition, the inhibition at 10 µM in test [1] (single concentration of 10 uM) was determined as 102%; in test [2] (single concentration of 10 uM), 100%; in test [3] (single concentration of 10 uM), 99.4%.
Turning to `CNCc1cn(S(=O)(=O)c2cccc(Cl)c2)c(-c2c(F)cccc2F)c1OC` [Example 14, 1-(5-(2,6-difluorophenyl)-1-((3-chlorophenyl)sulfonyl)-4-methoxy-1H-pyrrol-3-yl)-N-methylmethanamine hydrochloride], the IC50 in test [1] came to 0.21 µM. The inhibition at 10 µM came out at 99.9% in test [1] (single concentration of 10 uM), 94.9% in test [2] (single concentration of 10 uM) and 48.1% in test [3] (single concentration of 10 uM).
For the compound `CNCc1cn(S(=O)(=O)c2cccc(C(F)(F)F)c2)c(-c2c(F)cccc2F)c1OC` [Example 15, 1-(5-(2,6-difluorophenyl)-1-((3-(trifluoromethyl)phenyl)sulfonyl)-4-methoxy-1H-pyrrol-3-yl)-N-methylmethanamine hydrochloride], the inhibition at 10 µM came to 30.1% in test [1] (single concentration of 10 uM), 87.1% in test [2] (single concentration of 10 uM) and 62.1% in test [3] (single concentration of 10 uM).
As for `CNCc1cn(S(=O)(=O)c2cccc(C)c2)c(-c2c(F)cccc2F)c1OC` [Example 16, 1-(5-(2,6-difluorophenyl)-1-((3-methylphenyl)sulfonyl)-4-methoxy-1H-pyrrol-3-yl)-N-methylmethanamine fumarate], the IC50 in test [1] was 0.058 µM; in test [2], 1.9 µM. Besides, the inhibition at 10 µM in test [1] was 102%; in test [2], 95.4%; in test [3], 69.7%.
For the compound `CNCc1cn(S(=O)(=O)c2cccc(OC)c2)c(-c2c(F)cccc2F)c1OC` [Example 17, 1-(5-(2,6-difluorophenyl)-1-((3-methoxyphenyl)sulfonyl)-4-methoxy-1H-pyrrol-3-yl)-N-methylmethanamine hydrochloride], in test [1], the IC50 was found to be 2.2 µM. Also, the inhibition at 10 µM was 102% in test [1] (single concentration of 10 uM), 85.2% in test [2] (single concentration of 10 uM) and 60.1% in test [3] (single concentration of 10 uM).
